“And” between values parts separate entries of the source, which are not always exact repeats. Equal entries are not always repeated. Inconclusive results and toxic doses are left out.
Tested on: P388 leukemia ip, CD2F1 mice, survival T/C
Test: NCI In Vivo Anticancer Drug Screen. Data for tumor model P388 Leukemia (intraperitoneal) in CD2F1 (CDF1) mice
Conditions: endpoint: median survival time, higher = longer survival
Procedure, shortened: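 Mice carrying the transplanted tumor received test compound or vehicle. Survival was recorded in each group, and the value is the treated-group measurement divided by that of the vehicle-treated control group.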

[1] = dose: 50.0 mg/kg/injection, schedule: Q01DX005 (ip), vehicle: Klucel (hydroxypropylcellulose) (HPC)
[2] = dose: 100.0 mg/kg/injection, schedule: Q04DX003 (ip), vehicle: saline with Tween-80
[3] = dose: 200.0 mg/kg/injection, schedule: Q04DX003 (ip), vehicle: saline with Tween-80
[4] = dose: 400.0 mg/kg/injection, schedule: Q04DX003 (ip), vehicle: saline with Tween-80
[5] = dose: 50.0 mg/kg/injection, schedule: Q01DX005 (ip), vehicle: saline with Tween-80
[6] = dose: 100.0 mg/kg/injection, schedule: Q01DX005 (ip), vehicle: saline with Tween-80
[7] = dose: 200.0 mg/kg/injection, schedule: Q01DX005 (ip), vehicle: saline with Tween-80
[8] = dose: 100.0 mg/kg/injection, schedule: Q01DX005 (ip), vehicle: Klucel (hydroxypropylcellulose) (HPC)
[9] = dose: 200.0 mg/kg/injection, schedule: Q01DX005 (ip), vehicle: Klucel (hydroxypropylcellulose) (HPC)
[10] = dose: 50.0 mg/kg/injection, schedule: Q01DX009 (ip), vehicle: saline with Tween-80
[11] = dose: 50.0 mg/kg/injection, schedule: Q01DX009 (ip), vehicle: saline
[12] = dose: 6.25 mg/kg/injection, schedule: Q01DX009 (ip), vehicle: saline with Tween-80
[13] = dose: 12.5 mg/kg/injection, schedule: Q01DX009 (ip), vehicle: saline with Tween-80
[14] = dose: 100.0 mg/kg/injection, schedule: Q04DX003 (ip), vehicle: saline
[15] = dose: 200.0 mg/kg/injection, schedule: Q04DX003 (ip), vehicle: saline

With `COC(=O)[C@@]12OC[C@]34[C@H]([C@@H](O)[C@@H]1O)[C@@]1(C)C=C(OC5OC(CO)C(O)C(O)C5O)C(=O)C(C)[C@@H]1C[C@H]3OC(=O)[C@H](OC(=O)C=C(C)C)[C@@H]24` (stereo partly specified) the T/C (dose: 0.25 mg/kg/injection, schedule: Q01DX009 (ip), vehicle: saline + alcohol) was 107 % of control, the T/C (dose: 0.5 mg/kg/injection, schedule: Q01DX009 (ip), vehicle: saline + alcohol) was 112 % of control and the T/C (dose: 1.0 mg/kg/injection, schedule: Q01DX009 (ip), vehicle: saline + alcohol) was 112 % of control. The T/C (dose: 2.0 mg/kg/injection, schedule: Q01DX009 (ip), vehicle: saline + alcohol) was 106 % of control, the T/C (dose: 4.0 mg/kg/injection, schedule: Q01DX009 (ip), vehicle: saline + alcohol) was 112 % of control and the T/C (dose: 8.0 mg/kg/injection, schedule: Q01DX009 (ip), vehicle: saline + alcohol) was 111 % of control.

With `COc1cc(OC)cc(N2C(N)=NC(N)=NC2(C)C)c1` the T/C (dose: 12.5 mg/kg/injection, schedule: Q01DX005 (ip), vehicle: Klucel (hydroxypropylcellulose) (HPC)) was 104 % of control, the T/C (dose: 25.0 mg/kg/injection, schedule: Q01DX005 (ip), vehicle: Klucel (hydroxypropylcellulose) (HPC)) was 105 % of control and the T/C [1] was 102 % of control and 107 % of control.

With `COCC(=O)[C@]1(O)Cc2c(O)c3c(c(O)c2[C@@H](OC2CC(N)C(O)C(C)O2)C1)C(=O)c1c(OC)cccc1C3=O` (stereo partly specified) the T/C (dose: 6.25 mg/kg/injection, schedule: Q04DX003 (ip), vehicle: water) was 100 % of control, the T/C (dose: 12.5 mg/kg/injection, schedule: Q04DX003 (ip), vehicle: water) was 100 % of control and the T/C (dose: 25.0 mg/kg/injection, schedule: Q04DX003 (ip), vehicle: water) was 109 % of control. For the same molecule, the T/C (dose: 100.0 mg/kg/injection, schedule: Q04DX003 (ip), vehicle: water) was 118 % of control and the T/C (dose: 200.0 mg/kg/injection, schedule: Q04DX003 (ip), vehicle: water) was 87 % of control.

For `O=C(Cn1ccnc1[N+](=O)[O-])NCCO`, the T/C (dose: 12.5 mg/kg/injection, schedule: Q01DX009 (ip), vehicle: water) was 113 % of control, the T/C (dose: 25.0 mg/kg/injection, schedule: Q01DX009 (ip), vehicle: water) was 105 % of control and the T/C (dose: 50.0 mg/kg/injection, schedule: Q01DX009 (ip), vehicle: water) was 101 % of control. For the same molecule, the T/C (dose: 100.0 mg/kg/injection, schedule: Q01DX009 (ip), vehicle: water) was 105 % of control and the T/C (dose: 200.0 mg/kg/injection, schedule: Q01DX009 (ip), vehicle: water) was 114 % of control.

With `CCC(=O)OCC(=O)[C@]1(O)Cc2c(O)c3c(c(O)c2[C@@H](OC2CC(N)C(O)C(C)O2)C1)C(=O)c1c(OC)cccc1C3=O` (stereo partly specified) the T/C (dose: 0.25 mg/kg/injection, schedule: Q01DX009 (ip), vehicle: saline) was 163 % of control, the T/C (dose: 0.5 mg/kg/injection, schedule: Q01DX009 (ip), vehicle: saline sonified) was 172 % of control and the T/C (dose: 0.5 mg/kg/injection, schedule: Q01DX009 (ip), vehicle: saline) was 174 % of control. The T/C (dose: 1.0 mg/kg/injection, schedule: Q01DX009 (ip), vehicle: saline sonified) was 168 % of control, the T/C (dose: 1.0 mg/kg/injection, schedule: Q01DX009 (ip), vehicle: saline) was 225 % of control and the T/C (dose: 2.0 mg/kg/injection, schedule: Q01DX009 (ip), vehicle: saline sonified) was 172 % of control. For the same molecule, the T/C (dose: 2.0 mg/kg/injection, schedule: Q01DX009 (ip), vehicle: saline) was 252 % of control and the T/C (dose: 8.0 mg/kg/injection, schedule: Q01DX009 (ip), vehicle: saline) was 114 % of control.

`CC(=O)Nc1ncc(Sc2ccc([N+](=O)[O-])cc2)s1` was tested, and the T/C (dose: 1.56 mg/kg/injection, schedule: Q04DX003 (ip), vehicle: saline) was 100 % of control, the T/C (dose: 3.13 mg/kg/injection, schedule: Q04DX003 (ip), vehicle: saline) was 99 % of control and the T/C (dose: 6.25 mg/kg/injection, schedule: Q04DX003 (ip), vehicle: saline) was 98 % of control. For the same molecule, the T/C (dose: 12.5 mg/kg/injection, schedule: Q04DX003 (ip), vehicle: saline) was 97 % of control.

`COc1cc(-c2ccc(NC(=O)CC(C)=O)c(OC)c2)ccc1NC(=O)CC(C)=O` was tested, and the T/C [2] was 100 % of control, the T/C [3] was 100 % of control and the T/C [4] was 90 % of control.

With `O=C(NC(O)C(=O)O)c1ccc(Cl)cc1` (stereo unspecified) the T/C (dose: 60.0 mg/kg/injection, schedule: Q01DX005 (ip), vehicle: saline with Tween-80) was 97 % of control, the T/C (dose: 120.0 mg/kg/injection, schedule: Q01DX005 (ip), vehicle: saline with Tween-80) was 95 % of control and the T/C (dose: 240.0 mg/kg/injection, schedule: Q01DX005 (ip), vehicle: saline with Tween-80) was 97 % of control.

For `c1ccc2c(c1)ccc1ncc3ncccc3c12`, the T/C (dose: 100.0 mg/kg/injection, schedule: Q04DX002 (ip), vehicle: saline with Tween-80) was 98 % of control and the T/C (dose: 200.0 mg/kg/injection, schedule: Q04DX002 (ip), vehicle: saline with Tween-80) was 114 % of control.

`O=C1C(CCl)=C(c2ccccc2)S(=O)(=O)c2ccccc21` was tested, and the T/C [5] was 109 % of control, the T/C [6] was 114 % of control and the T/C [7] was 114 % of control.

With `C=C(C)C(=O)N(C)c1nc(N(C)C)nc(N(C)C)n1` the T/C [1] was 101 % of control, the T/C [8] was 103 % of control and the T/C [9] was 103 % of control.

In the case of `NCCn1c(-c2ccccc2)nc2ccccc2c1=O`, the T/C [1] is reported as 100 % of control, the T/C [8] is reported as 97 % of control and the T/C [9] is reported as 109 % of control.

With `O=C1CCCCCCCCCC/C1=N/O` the T/C [10] was 99 % of control, the T/C (dose: 100.0 mg/kg/injection, schedule: Q01DX009 (ip), vehicle: saline with Tween-80) was 89 % of control and the T/C (dose: 200.0 mg/kg/injection, schedule: Q01DX009 (ip), vehicle: saline with Tween-80) was 96 % of control.

`CN1CCN2c3ccccc3Cc3ccccc3C2C1` (stereo unspecified) was tested, and the T/C (dose: 6.25 mg/kg/injection, schedule: Q01DX009 (ip), vehicle: saline) was 90 % of control, the T/C (dose: 12.5 mg/kg/injection, schedule: Q01DX009 (ip), vehicle: saline) was 94 % of control and the T/C (dose: 25.0 mg/kg/injection, schedule: Q01DX009 (ip), vehicle: saline) was 105 % of control and 107 % of control. For the same molecule, the T/C [11] was 118 % of control and 119 % of control.

`CN=C(C)NC1CCCCC1` was tested, and the T/C [11] was 96 % of control and the T/C (dose: 100.0 mg/kg/injection, schedule: Q01DX009 (ip), vehicle: saline) was 96 % of control.

With `O=C(O)Cc1ccc2c(c1)sc1nc(-c3ccc(Br)cc3)cn12` the T/C (dose: 100.0 mg/kg/injection, schedule: Q04DX003 (ip), vehicle: Klucel (hydroxypropylcellulose) (HPC)) was 101 % of control, the T/C (dose: 200.0 mg/kg/injection, schedule: Q04DX003 (ip), vehicle: Klucel (hydroxypropylcellulose) (HPC)) was 103 % of control and the T/C (dose: 400.0 mg/kg/injection, schedule: Q04DX003 (ip), vehicle: Klucel (hydroxypropylcellulose) (HPC)) was 103 % of control.

In the case of `CC1=CN(C(=O)c2ccccc2)C(C#N)N(C(=O)c2ccccc2)C1C#N` (stereo unspecified), the T/C (dose: 60.0 mg/kg/injection, schedule: Q01DX005 (ip), vehicle: Klucel (hydroxypropylcellulose) (HPC)) is reported as 100 % of control, the T/C (dose: 120.0 mg/kg/injection, schedule: Q01DX005 (ip), vehicle: Klucel (hydroxypropylcellulose) (HPC)) is reported as 103 % of control and the T/C (dose: 240.0 mg/kg/injection, schedule: Q01DX005 (ip), vehicle: Klucel (hydroxypropylcellulose) (HPC)) is reported as 102 % of control.

`COCOc1cccc2c1CCC2` was tested, and the T/C [5] was 100 % of control, the T/C [6] was 100 % of control and the T/C [7] was 100 % of control.

In the case of `CCN(CC)Cc1cc2[nH]c3c4ccc(Cl)cc4ncc3c2cc1OC`, the T/C [12] is reported as 101 % of control, the T/C [13] is reported as 100 % of control and the T/C (dose: 25.0 mg/kg/injection, schedule: Q01DX009 (ip), vehicle: saline with Tween-80) is reported as 98 % of control. The T/C [5] was 112 % of control, the T/C [10] was 87 % of control and 94 % of control and the T/C [6] was 102 % of control.

For `CCOC(=O)N1CCNCC1`, the T/C [14] was 108 % of control and the T/C [15] was 108 % of control.

For `COc1ccc2c(c1)CC[C@@H]1[C@@H]2CC[C@]2(C)/C(=N\O)CC[C@@H]12`, the T/C [2] was 90 % of control, the T/C [3] was 90 % of control and the T/C [4] was 100 % of control.

With `CC1(C)C(/C=C\c2ccc(O)cc2)=Nc2ccccc21` the T/C (dose: 3.12 mg/kg/injection, schedule: Q01DX009 (ip), vehicle: saline with Tween-80) was 105 % of control, the T/C [12] was 100 % of control and the T/C [13] was 108 % of control.

In the case of `CN(C)C(=C1C=CC=C/C1=N/S(=O)(=O)c1ccccc1)N(C)C`, the T/C [14] is reported as 103 % of control, the T/C [15] is reported as 108 % of control and the T/C (dose: 400.0 mg/kg/injection, schedule: Q04DX003 (ip), vehicle: saline) is reported as 105 % of control.

In the case of `Cc1ccc(N)c(C(=O)Nc2ccc(Cl)cc2)c1`, the T/C [5] is reported as 104 % of control, the T/C [6] is reported as 91 % of control and the T/C [7] is reported as 92 % of control.

From PubChem BioAssay AID330 (DTP/NCI, 2004)
